Laboratory results as given in US20080255206A1, “Rxr Agonists and Antagonists, Alone or in Combination with Ppar Ligands, in the Treatment of Metabolic and Cardiovascular Diseases” (priority 2005, published 2008).

Key:
[1] = system: MMP-1 mRNA; assay: MMP-1 mRNA in synovial fibroblasts (real time PCR); assay type: cell-based, human
Method: (§1) Furthermore, it is determined whether this is accompanied by a modulation in the accumulation of the mRNA encoding catabolic enzyme matrix metalloproteinase-1 (MMP-1), responsible for degradation of human cartilage and consequently joint destruction in man. Adherent synovial fluid cells taken from a patient with RA are used after 5 passages in an in vitro assay for cartilage destruction. The cells incubated in flasks coated with 0.1% (0.1 g/100 ml) human cartilage powder are fixed using Matrigel® (BD Biosciences, Becton, Dickinson & Co., Boston, Mass., USA).
This is conducted in the presence or absence of IL-1β (100 pg/ml).

[2] = system: db/db mice; assay: Investigation with db/db mice (blood glucose and lipids); assay type: in vivo, mouse; conditions: for Glucose Diff. D o − D 12 / HDL-cholesterol Diff. D o − D 12 / Total cholesterol Diff. D o − D 12 / Triglycerides Diff. D o − D 12: change day 0 to day 12; for Glucose D o / HDL-cholesterol D o / Total cholesterol D o / Triglycerides D o: day 0; for Glucose D 12 / HDL-cholesterol D 12 / Total cholesterol D 12 / Triglycerides D 12: day 12; for Glucose D-4 / HDL-cholesterol D-4 / Total cholesterol D-4 / Triglycerides D-4: day −4
Method: The following compounds are investigated and compared to placebo (vehicle control).
The mentioned 3 compounds are tested in db/db mice during a time when diabetes is in a rapid developing stage. […] Each dosage group and the vehicle group comprise 7 mice. The suspensions used are prepared with peroxide free arachis oil as vehicle. Blood samples are collected by retro-orbital bleeding at days −4, 0 and 12. The blood levels of glucose, triglycerides, total cholesterol, and HDL-cholesterol are determined.
For evaluation of efficacy, the difference between the values of glucose, triglycerides, total cholesterol and HDL-cholesterol changing from day 0 to day 12 is determined and expressed in %. […] Overall evaluation consists in determining the efficacy of the compounds by calculating the whole extent of the effect expressed in %. […] This value is considered as a valuable indicator for the efficacy of the investigated compounds administered in a tolerated dose.

[3] = system: synovial fibroblasts; assay: In vitro cartilage degradation by synovial fibroblasts (sGAG release); assay type: cell-based, human; conditions: for sGAG release: 14 days
Method: as §1, with “USA). The release of sulphated glycosaminoglycan (sGAG) into the culture medium is monitored by a commercial colorimetric test according to a method described by S. Björnsson, see Anal. […] This is conducted in the presence or absence of IL-1β (100 pg/ml).” for “USA).”

[4] = 30 mg/kg/day group versus vehicle group

CCCCOc1c(\C(C)=C/C=C/C(C)=C/C(=O)O)cc(C(C)(C)C)cc1C(C)(C)C [Compound 15, (2E,4E,6Z)-7-[2-butoxy-3,5-bis(1,1-dimethylethyl)phenyl]-3-methyl-2,4,6-octatrienoic acid]
MMP-1 mRNA, fold increase of baseline value ([1]; 10^−7 M, after 24 hours): 0.68 relative units
MMP-1 mRNA, fold increase of baseline value ([1]; 10^−8 M, 0 hours): 1 relative units
MMP-1 mRNA, fold increase of baseline value ([1]; 10^−8 M, 2 hours): 1.13 relative units
MMP-1 mRNA, fold increase of baseline value ([1]; 10^−8 M, 6 hours): 0.81 relative units
MMP-1 mRNA, fold increase of baseline value ([1]; 10^−8 M, 12 hours): 1.12 relative units
MMP-1 mRNA, fold increase of baseline value ([1]; 10^−8 M, 24 hours): 0.87 relative units
MMP-1 mRNA, fold increase of baseline value ([1]; 10^−8 M, 48 hours): 0.83 relative units
MMP-1 mRNA, fold increase of baseline value ([1]; 10^−8 M, after 24 hours): 1.12 relative units
MMP-1 mRNA, fold increase of baseline value ([1]; 10^−9 M, after 24 hours): 1.05 relative units
Glucose Diff. D o − D 12 ([2]; 0.3 mg/kg/day i.p.): +20.8%
HDL-cholesterol Diff. D o − D 12 ([2]; 0.3 mg/kg/day i.p.): −5.0%
Total cholesterol Diff. D o − D 12 ([2]; 0.3 mg/kg/day i.p.): −5.7%
Triglycerides Diff. D o − D 12 ([2]; 0.3 mg/kg/day i.p.): −0.6%
Glucose D o ([2]; 0.3 mg/kg/day i.p.): 226 mg/dL
HDL-cholesterol D o ([2]; 0.3 mg/kg/day i.p.): 3.00 mmol/L
Total cholesterol D o ([2]; 0.3 mg/kg/day i.p.): 4.05 mmol/L
Triglycerides D o ([2]; 0.3 mg/kg/day i.p.): 1.78 mmol/L
Glucose D 12 ([2]; 0.3 mg/kg/day i.p.): 273 mg/dL
HDL-cholesterol D 12 ([2]; 0.3 mg/kg/day i.p.): 2.85 mmol/L
Total cholesterol D 12 ([2]; 0.3 mg/kg/day i.p.): 3.82 mmol/L
Triglycerides D 12 ([2]; 0.3 mg/kg/day i.p.): 1.77 mmol/L
Glucose D-4 ([2]; 0.3 mg/kg/day i.p.): 153 mg/dL
HDL-cholesterol D-4 ([2]; 0.3 mg/kg/day i.p.): 2.43 mmol/L
Total cholesterol D-4 ([2]; 0.3 mg/kg/day i.p.): 4.52 mmol/L
Triglycerides D-4 ([2]; 0.3 mg/kg/day i.p.): 2.28 mmol/L
Glucose levels (in words) ([2]; 3 mg/kg/day): markedly lowers glucose levels
HDL-cholesterol levels (in words) ([2]; 3 mg/kg/day): markedly raised
Triglyceride levels (in words) ([2]; 3 mg/kg/day): markedly decreasing
Glucose Diff. D o − D 12 ([2]; 3.0 mg/kg/day i.p.): +4.1%
HDL-cholesterol Diff. D o − D 12 ([2]; 3.0 mg/kg/day i.p.): +18.4%
Total cholesterol Diff. D o − D 12 ([2]; 3.0 mg/kg/day i.p.): −11.1%
Triglycerides Diff. D o − D 12 ([2]; 3.0 mg/kg/day i.p.): −44.9%
Glucose D o ([2]; 3.0 mg/kg/day i.p.): 270 mg/dL
HDL-cholesterol D o ([2]; 3.0 mg/kg/day i.p.): 2.88 mmol/L
Total cholesterol D o ([2]; 3.0 mg/kg/day i.p.): 3.95 mmol/L
Triglycerides D o ([2]; 3.0 mg/kg/day i.p.): 2.16 mmol/L
Glucose D 12 ([2]; 3.0 mg/kg/day i.p.): 281 mg/dL
HDL-cholesterol D 12 ([2]; 3.0 mg/kg/day i.p.): 3.41 mmol/L
Total cholesterol D 12 ([2]; 3.0 mg/kg/day i.p.): 4.39 mmol/L
Triglycerides D 12 ([2]; 3.0 mg/kg/day i.p.): 1.19 mmol/L
Glucose D-4 ([2]; 3.0 mg/kg/day i.p.): 192 mg/dL
HDL-cholesterol D-4 ([2]; 3.0 mg/kg/day i.p.): 2.47 mmol/L
Total cholesterol D-4 ([2]; 3.0 mg/kg/day i.p.): 4.62 mmol/L
Triglycerides D-4 ([2]; 3.0 mg/kg/day i.p.): 2.15 mmol/L
Glucose levels (in words) ([2]; 30 mg/kg/day): decrease markedly
HDL-cholesterol levels (in words) ([2]; 30 mg/kg/day): markedly increased
Total cholesterol levels (in words) ([2]; 30 mg/kg/day): slightly higher
Triglyceride levels (in words) ([2]; 30 mg/kg/day): very strongly
Overall extent of the effect on blood levels of Glucose [2, 4]: −58.0%
Overall extent of the effect on blood levels of HDL-cholesterol [2, 4]: +14.2%
Overall extent of the effect on blood levels of Total cholesterol [2, 4]: +14.9%
Overall extent of the effect on blood levels of Triglycerides [2, 4]: −73.0%
Glucose Diff. D o − D 12 ([2]; 30 mg/kg/day i.p.): −8.8%
HDL-cholesterol Diff. D o − D 12 ([2]; 30 mg/kg/day i.p.): +10.4%
Total cholesterol Diff. D o − D 12 ([2]; 30 mg/kg/day i.p.): +6.1%
Triglycerides Diff. D o − D 12 ([2]; 30 mg/kg/day i.p.): −50.9%
Glucose D o ([2]; 30 mg/kg/day i.p.): 294 mg/dL
HDL-cholesterol D o ([2]; 30 mg/kg/day i.p.): 3.07 mmol/L
Total cholesterol D o ([2]; 30 mg/kg/day i.p.): 4.27 mmol/L
Triglycerides D o ([2]; 30 mg/kg/day i.p.): 2.18 mmol/L
Glucose D 12 ([2]; 30 mg/kg/day i.p.): 268 mg/dL
HDL-cholesterol D 12 ([2]; 30 mg/kg/day i.p.): 3.39 mmol/L
Total cholesterol D 12 ([2]; 30 mg/kg/day i.p.): 4.53 mmol/L
Triglycerides D 12 ([2]; 30 mg/kg/day i.p.): 1.07 mmol/L
Glucose D-4 ([2]; 30 mg/kg/day i.p.): 184 mg/dL
HDL-cholesterol D-4 ([2]; 30 mg/kg/day i.p.): 2.45 mmol/L
Total cholesterol D-4 ([2]; 30 mg/kg/day i.p.): 3.98 mmol/L
Triglycerides D-4 ([2]; 30 mg/kg/day i.p.): 1.85 mmol/L
Effect on cartilage destruction in vitro (in words) ([3]; absence of IL-1β): no effect on the basal activity of synovial fibroblast
sGAG release ([3]; absence of IL-1β, 10^−7 M): 39 µg/mL
sGAG release ([3]; absence of IL-1β, 10^−8 M): 57 µg/mL
Cumulative sGAG ([3]; absence of IL-1β, 10^−8 M, day 7): 44 µg/mL
Cumulative sGAG ([3]; absence of IL-1β, 10^−8 M, day 14): 57 µg/mL
Cumulative sGAG ([3]; absence of IL-1β, 10^−8 M, day 21): 57 µg/mL
Cumulative sGAG ([3]; absence of IL-1β, 10^−8 M, day 28): 39 µg/mL
Cumulative sGAG ([3]; absence of IL-1β, 10^−8 M, day 35): 34 µg/mL
sGAG release ([3]; absence of IL-1β, 10^−9 M): 46 µg/mL
sGAG release ([3]; presence of 100 pg/ml IL-1β, 10^−7 M): 41 µg/mL
sGAG release ([3]; presence of 100 pg/ml IL-1β, 10^−8 M): 89 µg/mL
Cumulative sGAG ([3]; presence of 100 pg/ml IL-1β, 10^−8 M, day 7): 67 µg/mL
Cumulative sGAG ([3]; presence of 100 pg/ml IL-1β, 10^−8 M, day 14): 89 µg/mL
Cumulative sGAG ([3]; presence of 100 pg/ml IL-1β, 10^−8 M, day 21): 89 µg/mL
Cumulative sGAG ([3]; presence of 100 pg/ml IL-1β, 10^−8 M, day 28): 173 µg/mL
Cumulative sGAG ([3]; presence of 100 pg/ml IL-1β, 10^−8 M, day 35): 56 µg/mL
sGAG release ([3]; presence of 100 pg/ml IL-1β, 10^−9 M): 144 µg/mL
Effect on cartilage destruction in vitro (in words) ([3]; presence of IL-1β): markedly inhibits the IL-1β dependent cartilage destruction
